{"source": "patent US20100137327A1", "about": "“NOVEL SEM[…] CARBONYLHYDRAZIDE DERIVATIVES USEFUL AS POTASSIUM CHANNEL MODULATORS” (NeuroSearch A/S, priority 2007, published 2010)", "target": "BK channels heterologously expressed in Xenopus laevis oocytes (Homo sapiens, UniProt Q12791)", "sequence (Q12791 whole entry)": "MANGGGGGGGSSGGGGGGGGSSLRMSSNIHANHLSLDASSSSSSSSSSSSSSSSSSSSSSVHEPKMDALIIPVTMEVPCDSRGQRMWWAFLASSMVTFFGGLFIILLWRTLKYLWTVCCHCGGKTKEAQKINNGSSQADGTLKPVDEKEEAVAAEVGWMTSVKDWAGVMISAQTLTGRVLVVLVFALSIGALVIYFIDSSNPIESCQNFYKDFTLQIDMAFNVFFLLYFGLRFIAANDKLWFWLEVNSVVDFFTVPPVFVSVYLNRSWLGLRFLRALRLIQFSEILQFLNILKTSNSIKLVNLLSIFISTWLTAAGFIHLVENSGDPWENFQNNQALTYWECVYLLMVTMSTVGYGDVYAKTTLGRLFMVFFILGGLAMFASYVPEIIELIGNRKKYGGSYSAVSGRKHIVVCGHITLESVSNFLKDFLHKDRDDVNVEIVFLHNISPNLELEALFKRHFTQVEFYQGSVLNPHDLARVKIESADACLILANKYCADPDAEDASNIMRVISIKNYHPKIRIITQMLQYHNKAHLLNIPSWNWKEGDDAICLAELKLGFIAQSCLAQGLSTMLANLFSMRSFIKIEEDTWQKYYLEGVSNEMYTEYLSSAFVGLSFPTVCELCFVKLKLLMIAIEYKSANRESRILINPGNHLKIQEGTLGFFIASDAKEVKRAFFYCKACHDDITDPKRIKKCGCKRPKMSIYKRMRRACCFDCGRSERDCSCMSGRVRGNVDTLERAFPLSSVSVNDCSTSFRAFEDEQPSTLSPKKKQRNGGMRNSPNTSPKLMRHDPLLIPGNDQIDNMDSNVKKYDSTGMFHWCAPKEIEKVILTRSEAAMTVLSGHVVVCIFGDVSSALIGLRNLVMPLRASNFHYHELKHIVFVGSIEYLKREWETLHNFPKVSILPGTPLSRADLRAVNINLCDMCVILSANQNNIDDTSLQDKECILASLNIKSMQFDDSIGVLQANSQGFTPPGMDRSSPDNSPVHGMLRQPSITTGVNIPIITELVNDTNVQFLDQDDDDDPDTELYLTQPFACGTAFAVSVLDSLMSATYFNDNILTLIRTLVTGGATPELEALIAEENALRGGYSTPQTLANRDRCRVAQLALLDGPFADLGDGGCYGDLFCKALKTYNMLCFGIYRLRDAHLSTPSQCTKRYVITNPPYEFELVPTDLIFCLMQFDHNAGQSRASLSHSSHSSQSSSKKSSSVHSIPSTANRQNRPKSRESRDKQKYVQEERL", "details": "30 μM compound added after stable current level, step from −40 mV (5 s) to +30 mV (1 s), repeated, FIG. 1", "procedure": "The electrical current through the BK channel is measured conventional two-electrode voltage clamp. BK current is activated by repeated step protocols. In brief, this protocol goes from a resting membrane potential of −40 mV lasting for 5 s to a depolarised step to +30 mV lasting for 1 s. The protocol was repeated continuously.\nHaving reached a stable current level, Compound A (30 μM), was added."}
{"smiles": "O=C(NNc1ccc(-c2ccc(C(F)(F)F)cc2)cc1-c1nnn[nH]1)c1cc(C(F)(F)F)cc(C(F)(F)F)c1", "note": "[Compound A, 3,5-Bis-trifluoromethyl-benzoic acid N40-[3-(1H-tetrazol-5-yl)-4′-trifluoromethyl-biphenyl-4-yl]-hydrazide]", "values": [{"measurement": "current activated by depolarisation (BK channel opening activity)", "result": "marked increase"}]}
